According to patent publication EP2165698B1, “Cosmetic composition designed to protect damaged skin” (Universkin, priority 2008, dated 2016):
Where a SMILES comes first, the peptide text is derived from it.

Key:
[1] = tested on: Fibroblastes de lignée MRC5
[2] = tested on: kératinocytes de lignée NCTC
[3] = tested on: fibroblastes de lignée humaine; test: Production of extracellular matrix (MEC) proteins by fibroblasts, immunofluorescence / confocal microscopy; conditions: tripeptide-1 à 10^-7M vs culture without peptide
Description: Exemple 1 Etude du tripeptide-1® sur la production de protéines de la MEC par les fibroblastes par immunofluorescence.
• ▪ Matériel : fibroblastes de lignée humaine. • ▪ Protocole : les fibroblastes sont mis en culture en présence ou en absence du tripeptide-1® à 10^-7M. • ▪ Etude microscopique par microscopie confocale.

| Compound | acide alpha-linolénique dans le surnageant [1] | acides EPA et DHA dans le milieu surnageant [1] | acide EPA dans les cellules de kératinocytes [2] | acide alpha-linolénique dans le surnageant [2] | acide alpha-linolénique dans les cellules de kératinocytes [2] | acides EPA et DHA dans le surnageant [2] | AUGMENTATION % - Collagène de type I [3] | AUGMENTATION % - Collagène de type II [3] | AUGMENTATION % - Elastine [3] | AUGMENTATION % - Fibronectine [3] | AUGMENTATION % - Laminine [3] |
| --- | --- | --- | --- | --- | --- | --- | --- | --- | --- | --- | --- |
| CC/C=C\C/C=C\C/C=C\CCCCCCCC(=O)O [acide alpha-linolénique] | plus faible quantité que la quantité de départ | Apparition des acides EPA et DHA | apparition de l'acide EPA | aucune trace | quantités importantes | Apparition des acides EPA et DHA |  |  |  |  |  |
| NCCCC[C@H](NC(=O)[C@H](Cc1c[nH]cn1)NC(=O)CN)C(=O)O [tripeptide-1, H-Gly-His-Lys-OH] (H-Gly-His-Lys-OH) |  |  |  |  |  |  | + 305% | + 105% | + 15% | + 155% | + 85% |
